Structures can show the parent of a compound that is named as a salt.
Tests used:
[1] = Particle size distribution by laser light scattering (Malvern Mastersizer S); format: physicochemical; conditions: raloxifene hydrochloride used in Formulations 1-4; mean equivalent spherical diameter
Description: All particle sizes herein refer to the mean equivalent spherical diameter measured by laser light scattering techniques. Thus, the notation “d(0.5) greater than about 35 μm” means that 50% of the particles by volume have a mean equivalent spherical diameter of more than about 35 μm, as measured by laser light scattering. The laser light scattering measurement instrument used to measure the particle size distributions in the Examples was a Malvern Mastersizer® S. The dissolution profile was generated by testing in either 900 mL or 2 L of a 0.1% aqueous polysorbate 80 solution, using paddle apparatus (USP Apparatus II) at 50 rpm at 37° C.

[2] = starch content increased from 5 to 20%; tablets made by double compression; cited from earlier work

Row | Compound | particle size d(0.5) [1] [μm] | particle size d(0.9) [1] [μm] | increase in rate of dissolution of salicylic acid from tablets [2]
1 | O=C(c1ccc(OCCN2CCCCC2)cc1)c1c(-c2ccc(O)cc2)sc2cc(O)ccc12 [raloxifene hydrochloride] | 38.8 | 90.4 | 
2 | O=C(O)c1ccccc1O [salicylic acid] |  |  | three fold
